According to paper PMC11999280, “Design and screening of novel endosomal escape compounds that enhance functional delivery of oligonucleotides in vitro” (Molecular Therapy. Nucleic Acids, 2025):

Legend:
Assay type in all cases: cell-based
[1] = system: mCherry-GAL9 expressing SHSY5Y cells; assay: GAL9 recruitment assay, SHSY5Y; conditions: calculated mean from >3 independent exp.
In short: (§1)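 Readout is GAL9 relocalization to damaged endosomes, scored as mCherry-GAL9 structures counted in confocal images after fixation in 4% paraformaldehyde and Hoechst 33342 nuclear staining. Compounds were applied in dose-response to stably expressing cells seeded one day earlier; three independent experiments with duplicate wells.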

HeLa_Luc705 cells = assay: WST-1 cleavage cytotoxicity assay
Procedure: To better compare the two selected candidates, EEE4 and EEE8, a dose-response experiment was performed using half of the previously tested SSO concentration (1 μM). […] Dose-dependent cell toxicity was also assessed by measuring WST-1 cleavage, which occurs only in metabolically active cells. As expected, cellular viability was compromised upon treatment with high doses of EEEs.
For measuring the EEE cytotoxic effect, formazan formation was quantified upon tetrazolium salt WST-1 cleavage 1 or 24 h after initiation of treatment. As recommended by the manufacturer (Roche, catalog no. 5015944001), a 4-h WST-1 pre-incubation step was included before formazan quantification. Absorbance was measured between 420 and 480 nm, background signal was considered in the calculation, and values were normalized to untreated control.

[2] = system: HeLa_Luc705 cells (pLuc/705 splice-switching reporter); assay: Functional 705-SSO delivery, luciferase splice-switching assay; conditions: for Luciferase expression compared to reference: mean from >3 independent experiments
In short: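 Cells seeded at 10,000/well were pre-incubated 24 h with 1–2 μM 2′-O-methyl phosphorothioate 705-SSO, then exposed to endosomal escape enhancer at the stated concentrations. After 24 h, cells were lysed in 0.1% Triton X-100 and firefly luciferase luminescence was read as the splice-correction signal. LF2000 lipofection with 100–200 nM SSO served as transfection control.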

[3] = system: mCherry-GAL9 expressing 16HBE cells; assay: GAL9 recruitment assay, 16HBE; conditions: calculated mean from >3 independent exp.
In short: as §1

HeLa cells = assay: Cellular uptake of AF568-labeled SSO, flow cytometry; conditions: flow cytometry 0, 2, 4, 6 and 8h after EEE4-treatment
Procedure: Next, we set out to determine the mode of action of EEE4 on endosomal escape. We have previously shown with EEE2 that acidification of endosomes is critical to the activity of the EEE. […] Based on previous findings using EEE2, we hypothesized that simultaneous SSO + EEE4 uptake is needed to induce efficient splice-switching. To evaluate this hypothesis, we performed a parallel experiment using EEE4 dose response with either SSO co-treatment or 24-h SSO pre-incubation step. Luciferase readout was performed at five different time points after EEE4 addition, and splice-switching was observed under both experimental conditions. […] Finally, to ascertain that EEE4 indeed acts by enhancing the endosomal release of ASOs and not merely by increasing cellular uptake, a cellular uptake experiment was performed using AF568-labeled SSO.
Figure S1. Schematic representation of the splice-correction strategy used in pLUC/705 reporter. Luc705 reporters carry a pLuc/705 splice-switching luciferase gene, interrupted by a mutated b-globin intron. […]
Figure S2. […] HeLa ells were either SSO + EEE4 cotreated or 24h-SSO pre-incubated and then EEE4 treated, followed by readout using flow cytometry at 0, 2, 4, 6 and 8h after EEE4-treatment. Significant was calculated, for single variable using Mann-Whitney U test (*P <0.05, **P <0.005 and ***P […]

COc1nn(C2CCNCC2)cc1Nc1ncc(F)c(-n2ccc3c(C#N)cccc32)n1 [EEE4]
Gal9 response compared to reference ([1]; EEE 0.31 µM): 0.016 | Gal9 response compared to reference ([1]; EEE 0.62 µM): 0.315 | Gal9 response compared to reference ([1]; EEE 1.25 µM): 0.678 | Gal9 response compared to reference ([1]; EEE 2.5 µM): 0.499 | Gal9 response compared to reference ([1]; EEE 5 µM): 0.389 | Gal9 response compared to reference ([1]; EEE 10 µM): 0.026 | Cytotoxic effect by WST-1 cleavage (HeLa_Luc705 cells; 24 h treatment, 2–3 μM): mild to no cytotoxic effect | Cellular toxicity by WST-1 cleavage (HeLa_Luc705 cells; at efficient concentration (around 2 μM)): low cellular toxicity | SSO-mediated splice-switching upon co-treatment with bafilomycin A1 ([2]; EEE4 + bafilomycin (0.5 μM) co-incubation): significantly reduced | Luciferase expression compared to reference ([2]; HeLa-Luc705 + 1 µM SSO, EEE 0.5 µM): 3.610 | Luciferase expression compared to reference ([2]; HeLa-Luc705 + 1 µM SSO, EEE 2 µM): 139.083 | Luciferase expression compared to reference ([2]; HeLa-Luc705 + 1 µM SSO, EEE 4 µM): 39.821 | Luciferase expression compared to reference ([2]; HeLa-Luc705 + 1 µM SSO, EEE 5 µM): 13.700 | Luciferase expression compared to reference ([2]; HeLa-Luc705 + 2 µM SSO, EEE 5 µM): 0.020 | Splice-switching with 24-h SSO pre-incubation relative to SSO co-treatment ([2]; dose response, luciferase readout at time points after EEE addition): 20 times | Splice-switching enhancement ([2]; using 2–2.5 μM EEE): above 100 fold | Gal9 response compared to reference ([3]; EEE 0.31 µM): 0.021 | Gal9 response compared to reference ([3]; EEE 0.62 µM): 0.039 | Gal9 response compared to reference ([3]; EEE 1.25 µM): 0.395 | Gal9 response compared to reference ([3]; EEE 2.5 µM): 0.626 | Gal9 response compared to reference ([3]; EEE 5 µM): 0.501 | Gal9 response compared to reference ([3]; EEE 10 µM): 0.146 | Cellular uptake of AF568-labeled SSO in the presence of EEE (HeLa cells): did not observe any enhanced cellular uptake
